| melting point [°C] | SMILES |
| --- | --- |
| 180 to 182 | O=C1NC=C(C(=O)c2ccc(-n3ccnc3)cc2)C(c2ccc(Cl)cc2)N1 (centres unmarked) [Compound 5, 4-(4-chlorophenyl)-5-[4-(1H-imidazol-1-yl)benzoyl]-3,4-dihydropyrimidin-2(1H)-one] |
| 128 to 130 | COc1cc(C2NC(=O)NC=C2C(=O)c2ccc(-n3ccnc3)cc2)cc(OC)c1OC (centres unmarked) [Compound 13, 5-[4-(1H-imidazol-1-yl)benzoyl]-4-(3,4,5-trimethoxyphenyl)-3,4-dihydropyrimidin-2(1H)-one] |
| 125 to 127 | COc1cccc(C2NC(=O)NC=C2C(=O)c2ccc(-n3ccnc3)cc2)c1 (centres unmarked) [Compound 10, 5-[4-(1H-imidazol-1-yl)benzoyl]-4-(3-methoxyphenyl)-3,4-dihydropyrimidin-2(1H)-one] |
| 130 to 132 | O=C1NC=C(C(=O)c2ccc(-n3ccnc3)cc2)C(c2ccccc2)N1 (centres unmarked) [Compound 1, 5-[4-(1H-imidazol-1-yl)benzoyl]-4-phenyl-3,4-dihydropyrimidin-2(1H)-one] |
| 138 to 140 | O=C1NC=C(C(=O)c2ccc(-n3ccnc3)cc2)C(c2ccc(Cl)cc2Cl)N1 (centres unmarked) [Compound 6, 4-(2,4-dichlorophenyl)-5-[4-(1H-imidazol-1-yl)benzoyl]-3,4-dihydropyrimidin-2(1H)-one] |
| 136 to 138 | COc1ccc(C2NC(=O)NC=C2C(=O)c2ccc(-n3ccnc3)cc2)cc1OC (centres unmarked) [Compound 15, 5-[4-(1H-imidazol-1-yl)benzoyl]-4-(3,4-dimethoxyphenyl)-3,4-dihydropyrimidin-2(1H)-one] |
| 190 to 192 | O=C1NC=C(C(=O)c2ccc(-n3ccnc3)cc2)C(c2cccc(O)c2)N1 (centres unmarked) [Compound 9, 4-(3-hydroxyphenyl)-5-[4-(1H-imidazol-1-yl)benzoyl]-3,4-dihydropyrimidin-2(1H)-one] |
| 160 to 162 | O=C1NC=C(C(=O)c2ccc(-n3ccnc3)cc2)C(c2cccc([N+](=O)[O-])c2)N1 (centres unmarked) [Compound 4, 5-[4-(1H-imidazol-1-yl)benzoyl]-4-(3-nitrophenyl)-3,4-dihydropyrimidin-2(1H)-one] |
| 158 to 160 | O=C1NC=C(C(=O)c2ccc(-n3ccnc3)cc2)C(c2ccc([N+](=O)[O-])cc2)N1 (centres unmarked) [Compound 3, 5-[4-(1H-imidazol-1-yl)benzoyl]-4-(4-nitrophenyl)-3,4-dihydropyrimidin-2(1H)-one] |
| 138 to 140 | COc1ccc(C2NC(=O)NC=C2C(=O)c2ccc(-n3ccnc3)cc2)c(OC)c1OC (centres unmarked) [Compound 12, 5-[4-(1H-imidazol-1-yl)benzoyl]-4-(2,3,4-trimethoxyphenyl)-3,4-dihydropyrimidin-2(1H)-one] |
| 140 to 142 | COc1ccccc1C1NC(=O)NC=C1C(=O)c1ccc(-n2ccnc2)cc1 (centres unmarked) [Compound 7, 5-[4-(1H-imidazol-1-yl)benzoyl]-4-(2-methoxyphenyl)-3,4-dihydropyrimidin-2(1H)-one] |
| 130 to 132 | COc1cc(OC)c(C2NC(=O)NC=C2C(=O)c2ccc(-n3ccnc3)cc2)c(OC)c1 (centres unmarked) [Compound 14, 5-[4-(1H-imidazol-1-yl)benzoyl]-4-(2,4,6-trimethoxyphenyl)-3,4-dihydropyrimidin-2(1H)-one] |
| 155 to 157 | O=C1NC=C(C(=O)c2ccc(-n3ccnc3)cc2)C(c2ccccc2[N+](=O)[O-])N1 (centres unmarked) [Compound 2, 5-[4-(1H-imidazol-1-yl)benzoyl]-4-(2-nitrophenyl)-3,4-dihydropyrimidin-2(1H)-one] |
| 135 to 137 | COc1cc(OC)c(C2NC(=O)NC=C2C(=O)c2ccc(-n3ccnc3)cc2)cc1OC (centres unmarked) [Compound 11, 5-[4-(1H-imidazol-1-yl)benzoyl]-4-(2,4,5-trimethoxyphenyl)-3,4-dihydropyrimidin-2(1H)-one] |
